Measurements: US12258368B2, “Disulfide-linked reversible terminators” (CENTRILLION TECHNOLOGY HOLDINGS CORPORATION, priority 2018, dated 2025)

System: DNA polymerase ("CENT1")
Assay: Enzymatic incorporation (primer extension) into a growing DNA chain, with runaway reaction
Format: biochemical
Settings: for blockage of further extension after incorporation of the terminator: "runaway" reaction in the presence of all four unmodified dNTPs and a polymerase, lane 4; for further extension by the next base added after the cleavage: lane 6; for enzymatic incorporation: in the presence of DNA polymerase ("CENT1"), lane 3

| SMILES | blockage of further extension after incorporation of the terminator | further extension by the next base added after the cleavage | continued extension in a "runaway" reaction after cleavage (all four unmodified dNTPs and a DNA polymerase, FIG. 4 lanes 7 and 8) | enzymatic incorporation |
| --- | --- | --- | --- | --- |
| CSSCO[C@@H]1C[C@H](n2cc(C#CCNC(=O)OCCSSCCNC(=O)c3ccc(C4=c5cc6c(cc5Oc5cc7c(cc54)C(CS(=O)(=O)O)=CC(C)(C)N7)=NC(C)(C)C=C6CS(=O)(=O)O)cc3C(=O)O)c(=O)[nH]c2=O)O[C@@H]1COP(=O)(O)OP(=O)(O)OP(=O)(O)O [compound 75, (6-(3-carboxy-4-((2-((2-(((3-(1-((2R,4R,5R)-5-(((hydroxy((hydroxy(phosphonooxy)phosphoryl)oxy)phosphoryl)oxy)methyl)-4-((methyldisulfaneyl)methoxy)tetrahydrofuran-2-yl)-2,4-dioxo-1,2,3,4-tetrahydropyrimidin-5-yl)prop-2-yn-1-yl)carbamoyl)oxy)ethyl)disulfaneyl)ethyl)carbamoyl)phenyl)-2,2,10,10-tetramethyl-8-(sulfomethyl)-10,11-dihydro-2H-pyrano[3,2-g:5,6-g′]diquinolin-1-ium-4-yl)methanesulfonate] | excellent blockage | further extension with on base added | continued extension | excellent enzymatic incorporation |
| CC(=O)SCO[C@H]1C[C@H](n2cc(C#CCNC(=O)OC(C)(C)C)c(=O)[nH]c2=O)O[C@@H]1COP(=O)(O)OP(=O)(O)OP(=O)(O)O [compound 60, S-((((2R,3S,5R)-5-(5-(3-((tert-butoxycarbonyl)amino)prop-1-yn-1-yl)-2,4-dioxo-3,4-dihydropyrimidin-1 (2H)-yl)-2-(((hydroxy((hydroxy(phosphonooxy)phosphoryl)oxy)phosphoryl)oxy)methyl)tetrahydrofuran-3-yl)oxy)methyl) ethanethioate] | blockage of further extension after incorporation of the terminator | further extension by the next base added |  | can be used in enzymatic incorporation |
